Where only a bound is given, the exact number is not on record here.

Series [1] deals with BAT cells induced from wild-type brown preadipocytes. Nature of the series: In vitro staining of BMPs-induced BAT cells (live cell confocal). It is filed as cell-based. The settings on record: live cell confocal images.
The nature of series [2]: Excitation and emission wavelengths of BAT imaging agents. It is filed as physicochemical. The procedure:
In some embodiments, the methods include irradiating the mammal with light of the appropriate wavelength to excite the BAT imaging agent, and detecting emissions therefrom.
Fluorescent dyes were purchased from Exciton Inc. (Dayton, Ohio) and Invitrogen. The reagents used for the synthesis were purchased from Aldrich and used without further purification. Column chromatography was performed on silica gel (SiliCycle Inc., 60 Å, […]) slurry packed into glass columns. 1H, 13C NMR spectra were recorded at 500 MHz and 125 MHz respectively, and reported in ppm downfield from tetramethylsilane. Fluorescence studies were carried out using a F-4500 Fluorescence Spectrophotometer (Hitachi). Mass spectra were obtained at Harvard University, Department of Chemistry Instrumentation Facility. Microscopic images were acquired with Nikon Eclipse 50i microscope. In vivo NIR imaging was performed using the IVIS® Spectrum animal imaging system (Caliper LifeSciences, Perkin Elmer, Hopkinton, Mass.), and data analysis was conducted using LivingImage® 4.2.1 software.

Series [3] concerns interscapular BAT. Description: Time course and dose optimization of probe signal in BAT area after i.v. injection. It is filed as in vivo, mice. The procedure: Next the time course of CRANAD-2 and CRANAD-3 accumulation in BAT area was investigated. […] Similarly, the signal of CRANAD-3 reached the uptake peak around one hour, and then gradually washed out (FIG. 8c-d). Accumulation of CRANAD-2 and -3 in BAT was further confirmed with ex vivo histology of the dissected BAT slices, performed as follows. The dissected BAT was fixed with 4% formalin at 4° C. overnight, and then embedded into OCT. BAT tissue was cut into 7 micron thickness slices, washed with PBS buffer, and co-stained with DAPI (Vectra Shield, Vector Lab, Burlingame, Calif.). Images were acquired with fast exposure to capture the dye signal in the oil droplets. To outline cell membrane cell autofluorescence was captured with long exposure after image of the dye signal from oil droplets was already acquired. To further validate the capacity of CRANAD-29 for BAT labeling, ex vivo histological microscopic imaging with CRANAD-29 was conducted. […] Gold standard H&E staining also provided similar images (FIG. 10a). […] The injection dose of CRANAD-29 was optimized, and the fluorescence signal reached its plateau at 0.4 mg/kg (FIG. 11). In the following studies, 0.1 mg/kg dose was used.

Series [4] has as its system differentiated 3T3-L1 cells. Nature of the series: Probe uptake in differentiated 3T3-L1 cells (IVIS and two-photon imaging, competition). The settings on record: for uptake with triglyceride competition: triglyceride added with probe, two-photon microscopy and IVIS. Format: cell-based. The procedure: (§1) To investigate the facilitated diffusion of CRANAD-2, the time courses of CRANAD-2 uptake in 3T3-L1 cells were compared before and after differentiation. Two-photon imaging for 3T3-L1 cells was performed as follows. Fibroblast 3T3-L1 cells were differentiated following the protocol provided by Zenbio, Inc. (protocol No. ZBM0009.02). Ten microliters of CRANAD-2 (250 μM in DMSO) was added to the differentiated cells (1.0 ml). Cells were imaged after 10 min of incubation. A 940 nm laser was first used to capture an image for CRANAD-2 in 570-620 nm channel (Prairie Two-photon microscope, Middleton, Wis.). Next, the laser was tuned to 750 nm to capture autofluorescence of the cells to outline cell morphology.
For triglyceride competition, stock solutions of CRANAD-2 (250 μM) and triglyceride (5 mM) in DMSO were prepared. Before imaging, 10 μl of the stock solution was added to the cells.
(§2) IVIS imaging of 3T3-L1 cells with CRANAD-2 was performed as follows. To a 6-well plate seeded with preadipocytes or differentiated adipocytes, a 10 μL solution of CRANAD-2 (250 μM in DMSO) was added. The plate was subjected to imaging using IVIS imaging system with Ex=605 nm, Em=660 nm before and after addition of CRANAD-2. For triglyceride competition, the same protocol for two-photon imaging was used. The images were acquired at 20 min after addition of CRANAD-2. Studies were performed in triplicate.
(§3) The uptake of CRANAD-29 in 3T3-L1 cells before and after differentiation was compared. IVIS imaging of 3T3-L1 cells with CRANAD-29 was performed as follows. To a 6-well plate seeded with preadipocytes or differentiated adipocytes, a 10 μL solution of CRANAD-29 (250 μM in DMSO) was added. The plate was subjected to imaging using IVIS imaging system with Ex=640 nm, Em=700 nm before and after addition of CRANAD-29. For triglyceride competition and Hexarelin inhibition, the similar protocol for CRANAD-2 imaging was used. The final concentration of hexarelin was 12.5 μM, and the images were acquired at 3 hours after addition of CRANAD-29 and triglyceride/Hexarelin. Studies were performed in triplicate.

Series [5] has as its system undifferentiated 3T3-L1 cells. Nature of the series: Probe uptake in undifferentiated 3T3-L1 cells (IVIS imaging). Format: cell-based. The procedure:
as §1, §2, §3

In another series the test system is inguinal sWAT. Description: Monitoring browning of subcutaneous WAT after CL 316,243 treatment. It is filed as in vivo, C57BL6 mice. The following applies: after 12 days CL 316,243 1.0 mg/kg i.p. The procedure: Two-month old C57BL6 mice (n=5) were i.p. injected CL 316,243 (100 uL, 1.0 mg/kg) for 12 days, and the control mice (n=5) were i.p. injected with saline. On the 13th day, both groups were imaged after i.v. injection of CRANAD-29. Images were acquired at 1-, 2-, 4-hours after the probe injection. After the last imaging session, inguinal sWAT were dissected after scarification of the mice, and the dissected sWAT tissue was subjected to qPCR for UCP-1 expression and H&E staining

The subject of series [6] is interscapular BAT. Description: Monitoring BAT activation under cold exposure. It is filed as in vivo, balb/c mice. The following applies: 4° C. cold exposure. The procedure:
BAT could be activated under various conditions including cold exposure. In this report, whether CRANAD-29 could be used to monitor BAT activation under these conditions was investigated as follows. Two-month old balb/c mice (n=5) were placed in a 4° C. cold room for 2 hours before i.v. injection of CRANAD-29. Images were acquired at 1-, 2-, 4-hours after probe injection, and mice were placed in the cold room between imaging sessions. Control mice (n=5) were placed in a 25° C. room. Images were captured at the same time points after CRANAD-29 injection.

For `CN(C)c1ccc(/C=C/C2=CC(=C/C=C3C=CC(=[N+](C)C)C=C3)/O[B-](F)(F)O2)cc1` [CRANAD-2], the “staining of oil droplets in BAT cells” value in series [1] was “able to clearly label oil droplets in BAT cells”. Also, in series [2], the “Emission λ” value came to 680 nm and the “Excitation λ” value was 605 nm. In the series on interscapular BAT [3] (i.v. injection), the “cleared by” value is reported as at most 720 min, the signal detectable until entry is on record as “at least 180 min” and the “time of uptake peak in BAT area after injection” value amounted to 120 min. Besides, in series [4] (differentiated 3T3-L1 cells), the “time to uptake plateau” value was determined as 15 min and the “uptake within 1 minute, of the maximal” value stood at 62%. Also, in series [4], the “uptake with triglyceride competition” value is given as “significant decrease in uptake”. For the same compound, the “time to maximal uptake” value in series [5] was at most 1 min.

With `F[B-]1(F)OC(/C=C/c2cc3c4c(c2)CCCN4CCC3)=CC(/C=C/c2cc3c4c(c2)CCCN4CCC3)=[O+]1` [CRANAD-29], in series [2], the “Emission λ” value turned out to be 700 nm. For the same compound, in series [2], the “Excitation λ” value was 640 nm. Also, the “injection dose at which fluorescence signal reached its plateau” value with interscapular BAT [3] (dose optimization) is 0.4 mg/kg. Further, the “time at which uptake reached plateau after probe injection” value in the series with interscapular BAT [3] (mouse, in vivo, iv) is reported as “around 2 h”. The “CRANAD-29 signal around inguinal subcutaneous WAT, treated vs control group” value in the series on inguinal sWAT was “significantly higher”. In addition, the “fluorescent signal from interscapular BAT area, treated vs control group” value in the series on inguinal sWAT was “higher fluorescent signal”. Moreover, the “signal of cold-exposed animals vs control group” value is reported as 1.65 fold in the series with interscapular BAT [6] (1 hour after probe injection), 1.59 fold in the series with interscapular BAT [6] (2 hours after probe injection) and 1.53 fold with interscapular BAT [6] (4 hours after probe injection). The “time to uptake plateau” value in series [4] (differentiated 3T3-L1 cells) is “around 90 minute”. Further, in series [4] (differentiated 3T3-L1 cells fixed with glutaraldehyde), the “reduction of uptake in glutaraldehyde-fixed cells” value is on record as 70%. Also, the “uptake with Hexarelin (CD36 specific ligand)” value in series [4] (hexarelin 12.5 μM, images at 3 hours) is recorded as “significantly inhibited by Hexarelin”. For the same compound, in series [4], the “uptake with triglyceride competition” value is recorded as “significantly reduced by triglyceride”. The “uptake in undifferentiated cells over the time course” value in series [5] is recorded as “no apparent uptake”.

For the origin of these results see US9757477B2, “Imaging brown adipose tissue with curcumin derivatives” (The General Hospital Corporation, priority 2013, dated 2017).
